Experimental data reported in patent publication US20050096392A1, “Use of creatine pyruvate for increasing stamina during highly intensive intermittent physical exertion” (priority 2002, published 2005).

How the values were obtained:
[1] = design: species or system human; conditions: in vivo
Protocol: (§1) In a double-blind study, creatine pyruvate (A) and placebo (B) were tested. The male experimental subjects (n=32; age: 18 to 32) were divided into groups, each of n=16, so that the maximum oxygen consumption per kilogram of body weight was on average the same in the groups, and the types of sport undertaken were usually distributed the same as far as possible. This led to the fact that the mean strength in the intermittent studies was not the same. The test subjects of group A were administered 5.0 g of creatine pyruvate per day over a period of 28 days. The initial test (IT) was carried out on the 1st day, and the closing test (CT) on the 29th day. In the morning between 8 and 11 o'clock fasted blood sampling, record of anthropometric data; standardized breakfast; then intermittent test of the lower arm musculature.

lower arm musculature [2] = experiment: Intermittent test with the lower arm musculature, blood tests and acid-base status; format: in vivo, human
Protocol: as §1, with “day.” for “day. In the morning between 8 and 11 o'clock fasted blood sampling, record of anthropometric data; standardized breakfast; then intermittent test of the lower arm musculature.”
The arm of the seated test subjects is positioned extended (horizontally) at the side at shoulder height. The hand lies on an adjustable-weight gripper (stroke length: 3 cm). The arm is supported at the elbow. The test subjects must perform highly intensive intermittent work, for which they compress the adjustable-weight gripper at the maximum possible frequency. The weight in the basket is 80% of the maximum weight achieved in a preliminary test in which the load, starting at 7.5 kg, is increased by 2.5 kg every 3 minutes. The contraction frequency is 24/min. The maximum weight is reached when the 3 cm stroke length can no longer be overcome. Blood is taken from the cubital vein on the working arm. The skin blood flow is reduced by cooling. […]

[3] = Double-blind study, anthropometric data; format: in vivo, human
Protocol: as §1, with “musculature. […] The circumference of the thickest part of the lower arm increased in group A (p<0.005).” for “musculature.”

lower arm musculature [4] = experiment: Intermittent test with the lower arm musculature, mechanical parameters; format: in vivo, human
Protocol: as §1, with “day.” for “day. In the morning between 8 and 11 o'clock fasted blood sampling, record of anthropometric data; standardized breakfast; then intermittent test of the lower arm musculature.”
The arm of the seated test subjects is positioned extended (horizontally) at the side at shoulder height. The hand lies on an adjustable-weight gripper (stroke length: 3 cm). The arm is supported at the elbow. The test subjects must perform highly intensive intermittent work, for which they compress the adjustable-weight gripper at the maximum possible frequency. The weight in the basket is 80% of the maximum weight achieved in a preliminary test in which the load, starting at 7.5 kg, is increased by 2.5 kg every 3 minutes. The contraction frequency is 24/min. The maximum weight is reached when the 3 cm stroke length can no longer be overcome. Blood is taken from the cubital vein on the working arm. The skin blood flow is reduced by cooling. Blood was taken in each case before and after the 1st, 2nd, 6th, 9th and 10th period.
Via an inductive distance measurer on the adjustable-weight gripper, the stroke length of the weight basket was measured. From the signal, 4 measurements can be obtained. • 1. Contraction rate • 2. Stroke length • 3. Duration of the total contraction • 4. Integral of stroke length over time
The force is the mean force during the shortening phase, not the point-measurement maximum force. It is only the force which was developed additionally to the force necessary to overcome the force of gravity. In addition, the relaxation rate and the contraction frequency were determined. The evaluation was started with the fourth contraction. Thereafter, each contraction was evaluated over 12 seconds. The mechanical parameters were determined in the 1st, 2nd, 6th and 9th interval.

[5] = administration of creatine pyruvate
[6] = closing test, day 29, after 5.0 g per day over 28 days
[7] = initial vs closing test, 5.0 g per day over 28 days
[8] = initial vs closing test, p<0.005
[9] = highly intensive intermittent work, 80% of maximum weight, analysis of variance, p<0.01

- Change of HB [1]: not different
- Change of Hct [1]: not different
- Change of LDL cholesterol [1]: just above the level of significance
- Change of leukocyte number [1]: no difference
- Change of number of erythrocytes [1]: decreased significantly
- Change of uric acid concentration [1]: significant decrease
- Creatinine, CT mean [1]: 1.19
- Creatinine, IT mean [1]: 1.07 mg/dL
- Effect on fat metabolism at rest [1]: no effect
- Erythrocytes, CT mean [1]: 4.96
- Erythrocytes, IT mean [1]: 5.3 10^6/µL
- Hb, CT mean [1]: 15.4 g/dL
- Hb, IT mean [1]: 15.56
- Hct, CT mean [1]: 45.13
- Hct, IT mean [1]: 45.5%
- Leukocytes, CT mean [1]: 9386.67
- Leukocytes, IT mean [1]: 8980 µL⁻¹
- PT, CT mean [1]: 6.20
- PT, IT mean [1]: 5.40
- Urea, CT mean [1]: 30.00
- Urea, IT mean [1]: 34.07
- Uric acid, CT mean [1]: 5.29 mg/dL
- Uric acid, IT mean [1]: 5.64 mg/dL
Substance: creatine pyruvate
- Effects on kidney and liver function and fat metabolism parameters [1]: no adverse effects
- Overacidification of muscle tissue in highly intensive intermittent exertion (lower arm musculature [2]; [5]): does not occur, or only occurs to a very slight extent
- Rise of maximum values during exertion (parameter not named at the place) (lower arm musculature [2]; t test for paired random samples, p<0.002): significantly lower rise
- BIA fat measurement, CT mean [3, 6]: 16.63 kg
- BIA water measurement, CT mean [3, 6]: 47.39 kg
- Body fat (skinfold), CT mean [3, 6]: 11.59%
- Body weight, CT mean [3, 6]: 83.20 kg
- Circumference of lower elbow, CT mean [3, 6]: 29.62 cm
- Circumference of thickest point of the arm, CT mean [3, 6]: 29.67 cm
- BIA fat measurement, IT mean ([3]; initial test, day 1): 16.69 kg
- BIA water measurement, IT mean ([3]; initial test, day 1): 46.64 kg
- Body fat (skinfold), IT mean ([3]; initial test, day 1): 11.33%
- Circumference of lower elbow, IT mean ([3]; initial test, day 1): 28.94 cm
- Circumference of thickest point of the arm, IT mean ([3]; initial test, day 1): 29.01 cm
- Body weight, IT mean ([3]; initial test, day 1, group A, 5.0 g per day over 28 days): 81.70 kg
- Change of body fat content (skinfold thickness and BIA) [3, 7]: no change in body fat content
- Change of body weight [3, 7]: increased significantly
- Change of body fat content (skinfold thickness and BIA) ([3]; initial vs closing test, 5.0 g per day over 28 days, listed as A): remained the same
- Change of body H2O ([3]; initial vs closing test, one-sided test, p<0.05): increases in body H2O were significant
- Change of circumference at the epicondyles [3, 8]: The same applied
- Change of circumference of the thickest part of the lower arm [3, 8]: increased
- Muscle fatigue under highly intensive intermittent exertion (lower arm musculature [4]; [5]): significant reduction in muscle fatigue
- Relaxation rate (lower arm musculature [4]; highly intensive intermittent work, 80% of maximum weight): showed a tendency to increase
- Power calculated from the shortening rate (lower arm musculature [4]; highly intensive intermittent work, 80% of maximum weight, analysis of variance, p<0.005): increased in all intervals
- Contraction frequency (lower arm musculature [4]; [9]): increased in all intervals
- Force (lower arm musculature [4]; [9]): increased in all intervals
- Performance in highly intensive exertion (lower arm musculature [4]; short exertion and final intervals): significant increase in performance
